Experimental data from patent EP4227307A1 (Genzyme Corporation, priority 2022, dated 2023).
Structures can show the parent of a compound that is named as a salt.

Target: T1, human recombinant 6His-Nterm SHP2 full-length (Thr2-Arg593) (Homo sapiens, UniProt Q06124)
T1 construct: 6His-Nterm SHP2 full-length (Thr2-Arg593, R&D system); 6His (N); purchased R&D system
T1 sequence (Q06124 2-593): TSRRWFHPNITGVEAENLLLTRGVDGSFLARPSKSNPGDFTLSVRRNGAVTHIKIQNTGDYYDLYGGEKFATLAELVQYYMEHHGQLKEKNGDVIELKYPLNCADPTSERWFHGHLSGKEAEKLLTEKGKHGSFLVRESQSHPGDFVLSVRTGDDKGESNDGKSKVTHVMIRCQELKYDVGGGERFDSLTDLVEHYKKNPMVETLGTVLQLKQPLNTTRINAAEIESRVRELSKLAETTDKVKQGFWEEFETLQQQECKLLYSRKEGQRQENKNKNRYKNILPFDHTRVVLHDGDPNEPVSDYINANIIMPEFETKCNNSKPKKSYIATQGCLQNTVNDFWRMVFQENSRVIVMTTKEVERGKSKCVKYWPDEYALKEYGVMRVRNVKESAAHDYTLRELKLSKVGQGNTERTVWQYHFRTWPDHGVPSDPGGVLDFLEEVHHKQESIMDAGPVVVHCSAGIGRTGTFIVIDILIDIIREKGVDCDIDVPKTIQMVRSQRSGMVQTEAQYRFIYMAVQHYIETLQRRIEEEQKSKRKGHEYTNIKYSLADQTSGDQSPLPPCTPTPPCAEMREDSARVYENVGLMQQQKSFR
Experiment: SHP2 Phosphatase Assay (DiFMUP fluorescence)
Assay type: biochemical
Conditions: SHP2 0.2 nM pre-incubated with 100 nM bi-phosphorylated activating peptide; compound 1000-0.05 nM, 30 min pre-incubation; DiFMUP 20 µM, 45 min, room temperature; 10-concentration dose-response
Procedure, shortened: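 SHP2 (0.2 nM) preactivated ≥10 min with 100 nM bis-phosphorylated peptide, then 30 min with compound (10 concentrations, 1000–0.05 nM) at room temperature, pH 7.2 HEPES buffer with DTT. DiFMUP (20 µM, added solution) reacted 45 min, pervanadate-stopped; fluorescence 350/450 nm. IC50 by 4-parameter logistic fit.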

Row | SMILES | IC50 [nM]
1 | COc1ccc2c(c1)[C@@H](N)C1(CCN(c3nc(C)c(-c4cnn(C)c4C)n4nccc34)CC1)C2 [Compound 120, (1S)-1'-[7-(1,5-dimethylpyrazol-4-yl)-6-methyl-pyrazolo[1,5-a]pyrazin-4-yl]-6-methoxy-spiro[indane-2,4'-piperidine]-1-amine hydrochloride] | 11
2 | COc1cc2c(cn1)[C@@H](N)C1(CCN(c3nc(C)c(-c4ccnc(C)c4Cl)n4nccc34)CC1)C2 [Compound 121, (7S)-1'-[7-(3-chloro-2-methyl-4-pyridyl)-6-methyl-pyrazolo[1,5-a]pyrazin-4-yl]-3-methoxy-spiro [5,7-dihydrocyclopenta[c]pyridine-6,4'-piperidine]-7-amine] | 8
3 | COc1cc2c(cn1)[C@@H](N)C1(CCN(c3nc(C)c(-c4ccccc4F)n4nccc34)CC1)C2 [Compound 122, (7S)-1''-[7-(2-fluorophenyl)-6-methyl-pyrazolo[1,5-a]pyrazin-4-yl] -3-methoxy-spiro [5,7-dihydrocyclopenta[c]pyridine-6,4'-piperidine]-7-amine] | 12
4 | COc1ccc2c(c1)[C@@H](N)C1(CCN(c3nc(C)c(-c4cc(C)nn4C)n4nccc34)CC1)C2 [Compound 123, (1S)-1'-[7-(2,5-dimethylpyrazol-3-yl)-6-methyl-pyrazolo[1,5-a]pyrazin-4-yl]-6-methoxy-spiro[indane-2,4'-piperidine]-1-amine hydrochloride] | 9
5 | Cc1cc(-c2c(C)nc(N3CCC4(CC3)Cc3ncccc3[C@H]4N)c3ccnn23)cnn1 [Compound 124, (5S)-1'-[6-methyl-7-(6-methylpyridazin-4-yl)pyrazolo[1,5-a]pyrazin-4-yl]spiro[5,7-dihydrocyclopenta[b]pyridine-6,4'-piperidine]-5-amine hydrochloride] | 391
6 | CCn1ncc(-c2c(C)nc(N3CCC4(CC3)Cc3ccc(OC)cc3[C@H]4N)c3ccnn23)c1C [Compound 125, (1S)-1'-[7-(1-ethyl-5-methyl-pyrazol-4-yl)-6-methyl-pyrazolo[1,5-a]pyrazin-4-yl]-6-methoxy-spiro [indane-2,4'-piperidine]-1-amine hydrochloride] | 9
7 | COc1ccc2c(c1)[C@@H](N)C1(CCN(c3nc(C)c(-c4cnn(C)c4Cl)n4nccc34)CC1)C2 [Compound 126, (1S)-1'-[7-(5-chloro-1-methyl-pyrazol-4-yl)-6-methyl-pyrazolo[1,5-a]pyrazin-4-yl] -6-methoxy-spiro[indane-2,4'-piperidine]-1-amine hydrochloride] | 4
8 | COc1ccc2c(c1)[C@@H](N)C1(CCN(c3nc(C)c(-c4cc(C(F)(F)F)nn4C)n4nccc34)CC1)C2 [Compound 127, (1S)-6-methoxy-1'-[6-methyl-7-[2-methyl-5-(trifluoromethyl)pyrazol-3-yl]pyrazolo[1,5-a]pyrazin-4-yl]spiro[indane-2,4'-pipendine]-1-amine hydrochloride] | 22
9 | Cc1nccc(-c2c(C)nc(N3CCC4(CC3)Oc3ccccc3[C@H]4N)c3ccnn23)c1Cl [Compound 128, (3R)-1'-[7-(3-chloro-2-methyl-4-pyridyl)-6-methyl-pyrazolo[1,5-a]pyrazin-4-yl]spiro[3H-benzofuran-2,4'-piperidine]-3-amine] | 17
10 | Cc1nc(N2CCC3(CC2)Oc2ncccc2[C@H]3N)c2ccnn2c1-c1cccc(F)c1C(F)(F)F [Compound 129, (3R)-1'-[7-[3-fluoro-2-(trifluoromethyl)phenyl]-6-methyl-pyrazolo[1,5-a]pyrazin-4-yl]spiro[3H-furo[2,3-b]pyridine-2,4'-piperidine]-3-amine] | > 1000
11 | Cc1nc(N2CCC3(CC2)Cc2cccnc2[C@H]3N)c2ccnn2c1-c1cnn(C)c1C [Compound 130, (7S)-1'-[7-(1,5-dimethylpyrazol-4-yl)-6-methyl-pyrazolo[1,5-a]pyrazin-4-yl]spiro[5,7-dihydrocyclopenta[b]pyridine-6,4'-piperidine]-7-amine] | 60
12 | COc1cc2c(cn1)CC1(CCN(c3nc(C)c(-c4ccccc4F)n4nccc34)CC1)[C@@H]2N [Compound 131, (5S)-1'-[7-(2-fluorophenyl)-6-methyl-pyrazolo[1,5-a]pyrazin-4-yl] -3-methoxy-spiro [5,7-dihydrocyclopenta[c]pyridine-6,4'-piperidine]-5-amine] | 13
13 | Cc1nc(N2CCC3(CC2)Cc2ccncc2[C@H]3N)c2ccnn2c1-c1ccccc1F [Compound 134, (7S)-1'-[7-(2-fluorophenyl)-6-methyl-pyrazolo[1,5-a]pyrazin-4-yl]spiro[5,7-dihydrocyclopenta[c]pyridine-6,4'-piperidine]-7-amine] | 4
14 | COc1cc2c(cn1)CC1(CCN(c3nc(C)c(-c4ccccc4)n4nccc34)CC1)[C@@H]2N [Compound 135, (5S)-3-methoxy-1'-(6-methyl-7-phenyl-pyrazolo[1,5-a]pyrazin-4-yl)spiro[5,7-dihydrocyclopenta[c]pyridine-6,4'-piperidine]-5-amine] | 12
15 | Cc1nc(N2CCC3(CC2)Cc2ncccc2[C@@H]3N)c2ccnn2c1-c1ccccc1F [Compound 136, (5R)-1'-[7-(2-fluorophenyl)-6-methyl-pyrazolo[1,5-a]pyrazin-4-yl]spiro[5,7-dihydrocyclopenta[b]pyridine-6,4'-piperidine]-5-amine] | 383
16 | COc1cc2c(cn1)CC1(CCN(c3nc(C)c(-c4ccnc(C)c4Cl)n4nccc34)CC1)[C@@H]2N [Compound 137, (5S)-1'-[7-(3-chloro-2-methyl-4-pyridyl)-6-methyl-pyrazolo[1,5-a]pyrazin-4-yl]-3-methoxy-spiro[5,7-dihydrocyclopenta[c]pyridine-6,4'-piperidine]-5-amine] | 6
17 | Cc1nc(N2CCC3(CC2)Cc2ccncc2[C@H]3N)c2ccnn2c1-c1ccccc1 [Compound 138, (7S)-1'-(6-methyl-7-phenyl-pyrazolo[1,5-a]pyrazin-4-yl)spiro[5,7-dihydrocyclopenta[c]pyridine-6,4'-piperidine]-7-amine] | 4
18 | Cc1nccc(-c2c(C)nc(N3CCC4(CC3)Cc3ccncc3[C@H]4N)c3ccnn23)c1Cl [Compound 139, (7S)-1'-[7-(3-chloro-2-methyl-4-pyridyl)-6-methyl-pyrazolo[1,5-a]pyrazin-4-yl]spiro[5,7-dihydrocyclopenta[c]pyridine-6,4'-piperidine]-7-amine] | 4
19 | Cc1nccc(-c2c(C)nc(N3CCC4(CC3)Cc3ccncc3[C@H]4N)c3ccnn23)c1F [Compound 140, (7S)-1'-[7-(3-fluoro-2-methyl-4-pyridyl)-6-methyl-pyrazolo[1,5-a]pyrazin-4-yl]spiro[5,7-dihydrocyclopenta[c]pyridine-6,4'-piperidine]-7-amine] | 7
20 | Cc1nc(N2CCC3(CC2)Cc2ncccc2[C@@H]3N)c2ccnn2c1-c1ccccc1 [Compound 141, (5R)-1'-(6-methyl-7-phenyl-pyrazolo[1,5-a]pyrazin-4-yl)spiro[5,7-dihydrocyclopenta[b]pyridine-6,4'-piperidine]-5-amine] | 853
21 | Cc1nc(N2CCC3(CC2)Cc2ncccc2[C@H]3N)c2c(F)cnn2c1-c1ccccc1F [Compound 142, (5S)-1'-[3-fluoro-7-(2-fluorophenyl)-6-methyl-pyrazolo [1,5-a]pyrazin-4-yl]spiro[5,7-dihydrocyclopenta[b]pyridine-6,4'-piperidine]-5-amine hydrochloride] | 26
22 | Cc1nc(N2CCC3(CC2)Cc2ncccc2[C@H]3N)c2c(F)cnn2c1-c1ccccc1 [Compound 143, (5S)-1'-(3-fluoro-6-methyl-7-phenyl-pyrazolo[1,5-a]pyrazin-4-yl)spiro[5,7-dihydrocyclopenta[b]pyridine-6,4'-piperidine]-5-amine hydrochloride] | 39
23 | Cc1nccc(-c2c(C)nc(N3CCC4(CC3)Cc3ncccc3[C@H]4N)c3c(F)cnn23)c1Cl [Compound 144, (5S)-1'-[7-(3-chloro-2-methyl-4-pyridyl)-3-fluoro-6-methyl-pyrazolo[1,5-a]pyrazin-4-yl]spiro[5,7-dihydrocyclopenta[b]pyridine-6,4'-piperidine]-5-amine hydrochloride] | 17
24 | Cc1nc(N2CCC3(CC2)Cc2ncccc2[C@H]3N)c2c(CO)cnn2c1-c1ccccc1 [Compound 145, [4-[(5S)-5-aminospiro[5,7-dihydrocyclopenta[b]pyridine-6,4'-piperidine]-1'-yl]-6-methyl-7-phenyl-pyrazolo[1,5-a]pyrazin-3-yl]methanol] | > 1000
25 | Cc1nc(N2CCC3(CC2)Cc2ncccc2[C@H]3N)c2c(C(F)F)cnn2c1-c1ccccc1 [Compound 146, (5S)-1'-[3-(difluoromethyl)-6-methyl-7-phenyl-pyrazolo [1,5-a]pyrazin-4-yl]spiro[5,7-dihydrocyclopenta[b]pyridine-6,4'-piperidine]-5-amine] | > 1000
